HELM strings list units from the 5' end as sugar, base in round brackets, then linkage (d deoxyribose, r ribose, m 2'-O-methyl, p phosphodiester). Strings are as the collection lists them; they lack the last nucleoside at the 3' end of the tested compound. [moe] = 2'-O-(2-methoxyethyl) (MOE); [sp] = phosphorothioate linkage; [m5C] = 5-methylcytosine
The substances below were run against UBE3A-ATS (assay: mouse, dose not given). Conditions: ASO.

Substance	3 h FOB score [score 0-7]
RNA1{[moe](A)[sp].[moe](T)p.[moe](G)p.[moe](T)p.[moe](A)p.d(T)[sp].d([m5C])[sp].d(A)[sp].d(G)[sp].d(G)[sp].d([m5C])[sp].d(A)[sp].d(A)[sp].d([m5C])[sp].d(A)[sp].[moe](G)p.[moe](A)p.[moe](A)[sp].[moe](T)}$$$$ (last 3' nucleoside missing)	5
RNA1{[moe](A)[sp].[moe](T)p.[moe](G)p.[moe](T)p.[moe](G)p.[moe]([m5C])p.d(A)[sp].d(T)[sp].d(A)[sp].d([m5C])[sp].d([m5C])[sp].d([m5C])[sp].d(A)[sp].d(G)[sp].d(G)[sp].d(G)[sp].[moe](T)p.[moe](A)[sp].[moe](G)}$$$$ (last 3' nucleoside missing)	3.5
RNA1{[moe](A)[sp].[moe](T)p.[moe](G)p.[moe](T)p.[moe](G)p.d(G)[sp].d(G)[sp].d([m5C])[sp].d([m5C])[sp].d(T)[sp].d([m5C])[sp].d(T)[sp].d(A)[sp].d(T)[sp].d(T)[sp].[moe](A)p.[moe](A)p.[moe](G)[sp].[moe](A)}$$$$ (last 3' nucleoside missing)	0.7
RNA1{[moe](A)[sp].[moe](T)p.[moe](G)p.[moe](T)p.[moe](G)p.d([m5C])[sp].d(A)[sp].d(T)[sp].d(A)[sp].d([m5C])[sp].d([m5C])[sp].d([m5C])[sp].d(A)[sp].d(G)[sp].d(G)[sp].[moe](G)p.[moe](T)p.[moe](A)[sp].[moe](G)}$$$$ (last 3' nucleoside missing)	4
RNA1{[moe](A)[sp].[moe](T)p.[moe](G)p.[moe](T)p.d(G)[sp].d([m5C])[sp].d(A)[sp].d(T)[sp].d(A)[sp].d([m5C])[sp].d([m5C])[sp].d([m5C])[sp].d(A)[sp].d(G)[sp].[moe](G)p.[moe](G)p.[moe](T)p.[moe](A)[sp].[moe](G)}$$$$ (last 3' nucleoside missing)	1.8
RNA1{[moe](A)[sp].[moe](T)p.[moe](T)p.[moe](G)p.[moe](A)p.d([m5C])[sp].d(A)[sp].d([m5C])[sp].d([m5C])[sp].d(T)[sp].d([m5C])[sp].d([m5C])[sp].d(A)[sp].d(A)[sp].d([m5C])[sp].[moe](T)p.[moe](G)p.[moe](T)[sp].[moe](A)}$$$$ (last 3' nucleoside missing)	0.7
RNA1{[moe](A)[sp].[moe](T)p.[moe](T)p.[moe](G)p.[moe](G)p.[moe](T)p.d([m5C])[sp].d(A)[sp].d(T)[sp].d([m5C])[sp].d(T)[sp].d([m5C])[sp].d(G)[sp].d(G)[sp].d(G)[sp].d(T)[sp].[moe](A)p.[moe](T)[sp].[moe](A)}$$$$ (last 3' nucleoside missing)	4
RNA1{[moe](A)[sp].[moe](T)p.[moe](T)p.[moe](G)p.[moe](G)p.d(T)[sp].d([m5C])[sp].d(A)[sp].d(T)[sp].d([m5C])[sp].d(T)[sp].d([m5C])[sp].d(G)[sp].d(G)[sp].d(G)[sp].[moe](T)p.[moe](A)p.[moe](T)[sp].[moe](A)}$$$$ (last 3' nucleoside missing)	2.8
RNA1{[moe](A)[sp].[moe](T)p.[moe](T)p.[moe](G)p.[moe](T)p.d([m5C])[sp].d([m5C])[sp].d(T)[sp].d([m5C])[sp].d([m5C])[sp].d(T)[sp].d(G)[sp].d(G)[sp].d(T)[sp].d(A)[sp].[moe](A)p.[moe]([m5C])p.[moe]([m5C])[sp].[moe](A)}$$$$ (last 3' nucleoside missing)	1.2
RNA1{[moe](A)[sp].[moe](T)p.[moe](T)p.[moe](G)p.d(G)[sp].d(T)[sp].d([m5C])[sp].d(A)[sp].d(T)[sp].d([m5C])[sp].d(T)[sp].d([m5C])[sp].d(G)[sp].d(G)[sp].[moe](G)p.[moe](T)p.[moe](A)p.[moe](T)[sp].[moe](A)}$$$$ (last 3' nucleoside missing)	4
RNA1{[moe](A)[sp].[moe](T)p.[moe](T)p.[moe]([m5C])p.[moe](A)p.d(G)[sp].d(A)[sp].d(T)[sp].d(A)[sp].d([m5C])[sp].d(T)[sp].d(A)[sp].d(G)[sp].d(T)[sp].d(T)[sp].[moe](T)p.[moe](A)p.[moe]([m5C])[sp].[moe]([m5C])}$$$$ (last 3' nucleoside missing)	2.8
RNA1{[moe](A)[sp].[moe](T)p.[moe](T)p.[moe]([m5C])p.[moe](A)p.d(G)[sp].d([m5C])[sp].d(A)[sp].d([m5C])[sp].d(T)[sp].d(T)[sp].d(A)[sp].d(G)[sp].d(G)[sp].d(T)[sp].[moe](A)p.[moe](G)p.[moe](T)[sp].[moe](T)}$$$$ (last 3' nucleoside missing)	3.3
RNA1{[moe](A)[sp].[moe](T)p.[moe]([m5C])p.[moe](A)p.[moe](G)p.d(G)[sp].d(G)[sp].d([m5C])[sp].d(A)[sp].d([m5C])[sp].d(A)[sp].d(T)[sp].d(G)[sp].d(G)[sp].d(A)[sp].[moe](G)p.[moe](T)p.[moe](T)[sp].[moe](G)}$$$$ (last 3' nucleoside missing)	6.8
RNA1{[moe](A)[sp].[moe](T)p.[moe]([m5C])p.[moe](A)p.[moe](T)p.d(G)[sp].d(T)[sp].d(G)[sp].d([m5C])[sp].d(A)[sp].d(T)[sp].d(A)[sp].d([m5C])[sp].d([m5C])[sp].d([m5C])[sp].[moe](A)p.[moe](G)p.[moe](G)[sp].[moe](G)}$$$$ (last 3' nucleoside missing)	0
RNA1{[moe](A)[sp].[moe](T)p.[moe]([m5C])p.[moe](A)p.[moe]([m5C])p.d(A)[sp].d(T)[sp].d(T)[sp].d(A)[sp].d([m5C])[sp].d([m5C])[sp].d([m5C])[sp].d(A)[sp].d(T)[sp].d([m5C])[sp].[moe]([m5C])p.[moe](G)p.[moe](T)[sp].[moe](T)}$$$$ (last 3' nucleoside missing)	0
RNA1{[moe](A)[sp].[moe](T)p.[moe]([m5C])p.[moe](T)p.[moe](G)p.d(G)[sp].d(T)[sp].d([m5C])[sp].d(T)[sp].d(T)[sp].d(G)[sp].d(G)[sp].d(G)[sp].d(A)[sp].d(T)[sp].[moe](T)p.[moe](A)p.[moe](T)[sp].[moe](A)}$$$$ (last 3' nucleoside missing)	4.8
RNA1{[moe](A)[sp].[moe](T)p.[moe]([m5C])p.[moe](T)p.[moe]([m5C])p.d(G)[sp].d(G)[sp].d(G)[sp].d(T)[sp].d(A)[sp].d(T)[sp].d(A)[sp].d(T)[sp].d(A)[sp].d(A)[sp].[moe](A)p.[moe](T)p.[moe](T)[sp].[moe](A)}$$$$ (last 3' nucleoside missing)	0
RNA1{[moe](A)[sp].[moe]([m5C])[sp].[moe](A)[sp].[moe](T)[sp].[moe](T)[sp].d(T)[sp].d([m5C])[sp].d(T)[sp].d(T)[sp].d(A)[sp].d(G)[sp].d(T)[sp].d(T)[sp].d(G)[sp].d(A)[sp].[moe](A)[sp].[moe]([m5C])[sp].[moe](A)[sp].[moe](G)}$$$$ (last 3' nucleoside missing)	6.5
RNA1{[moe](A)[sp].[moe]([m5C])p.[moe](A)p.[moe](T)p.[moe](A)p.d([m5C])[sp].d(T)[sp].d(T)[sp].d(G)[sp].d(G)[sp].d(T)[sp].d(T)[sp].d(G)[sp].d([m5C])[sp].d(A)[sp].[moe](G)p.[moe](A)p.[moe]([m5C])[sp].[moe](G)}$$$$ (last 3' nucleoside missing)	4.8

From the OligoGym collection
